Where a SMILES comes first, the peptide text is derived from it.
Biological target: T1, β-catenin (Homo sapiens, UniProt P35222)
T1 sequence (P35222 1-781): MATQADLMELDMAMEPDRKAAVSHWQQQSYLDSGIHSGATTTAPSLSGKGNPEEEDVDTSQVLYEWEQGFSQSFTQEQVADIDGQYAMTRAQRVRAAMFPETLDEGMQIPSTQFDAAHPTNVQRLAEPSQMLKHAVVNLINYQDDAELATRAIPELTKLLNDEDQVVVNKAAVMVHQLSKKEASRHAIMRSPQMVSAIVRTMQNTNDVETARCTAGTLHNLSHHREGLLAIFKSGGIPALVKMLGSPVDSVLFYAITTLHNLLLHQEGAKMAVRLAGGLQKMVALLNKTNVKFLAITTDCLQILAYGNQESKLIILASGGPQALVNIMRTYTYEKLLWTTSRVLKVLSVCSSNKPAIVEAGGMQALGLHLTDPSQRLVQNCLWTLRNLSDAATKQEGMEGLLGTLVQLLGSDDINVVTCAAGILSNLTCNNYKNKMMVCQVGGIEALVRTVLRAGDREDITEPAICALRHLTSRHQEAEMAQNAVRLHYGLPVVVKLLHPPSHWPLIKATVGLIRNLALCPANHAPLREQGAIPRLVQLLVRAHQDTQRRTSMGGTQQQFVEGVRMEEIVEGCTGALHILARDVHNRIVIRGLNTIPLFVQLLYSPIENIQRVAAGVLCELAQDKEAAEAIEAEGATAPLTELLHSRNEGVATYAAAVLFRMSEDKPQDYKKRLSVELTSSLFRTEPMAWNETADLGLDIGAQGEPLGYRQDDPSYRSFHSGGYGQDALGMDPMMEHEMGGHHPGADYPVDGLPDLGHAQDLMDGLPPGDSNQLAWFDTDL
Assay: KD50 measurement using competitive fluorescence polarization (FP) with labelled TCF4
Assay type: binding
Conditions: fluorescence polarization, β-catenin; for Kd: read-out: β-Cat FP KD
In short: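 Each compound competes against labelled TCF4 (5 nM) for 100 nM β-catenin at room temperature, tested over 10 nM to 30 uM. Signal: polarization at 470/520 nm excitation/emission. Three repeat experiments were performed.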

| Compound | β-Cat FP Hill slope | Kd [µM] |
| --- | --- | --- |
| CC[C@H](C)[C@@H]1NC(=O)[C@@H](NC(=O)[C@H](CCC(N)=O)NC(=O)[C@H](C)N(C)C(=O)[C@@H](N)Cc2c[nH]c3ccccc23)CCCCNC(=O)CC[C@@H](C(=O)N[C@@H](Cc2c[nH]cn2)C(=O)N[C@H](C(=O)N[C@@H](CO)C(=O)N[C@@H](CCCNC(=N)N)C(=O)N[C@H](C(=O)N[C@@H](Cc2c[nH]c3ccccc23)C(=O)NCC(N)=O)C(C)C)C2CCCCC2)NC(=O)[C@H](CC(=O)O)NC(=O)[C@H](CC(C)C)NC1=O [compound 415] (HELM PEPTIDE1{W.[meA].Q.K.I.L.D.E.H.[O=C([C@@H](N[*:1])C1CCCCC1)[*:2]].S.R.V.W.G.[am]}$PEPTIDE1,PEPTIDE1,4:R3-8:R3$$$V2.0) | 0.7 | < 0.4 |
| CC[C@H](C)[C@@H]1NC(=O)[C@@H](NC(=O)[C@H](CCC(N)=O)NC(=O)[C@H](C)N(C)C(=O)[C@H](Cc2c[nH]c3ccccc23)NC(C)=O)CCCCNC(=O)CC[C@@H](C(=O)N[C@@H](Cc2c[nH]cn2)C(=O)N[C@H](C(=O)N[C@@H](CO)C(=O)N[C@@H](CCCNC(=N)N)C(=O)N[C@H](C(=O)N[C@@H](Cc2c[nH]c3ccccc23)C(=O)NCC(N)=O)C(C)C)C2CCCCC2)NC(=O)[C@H](CC(=O)O)NC(=O)[C@H](CC(C)C)NC1=O [compound 416] (HELM PEPTIDE1{[ac].W.[meA].Q.K.I.L.D.E.H.[O=C([C@@H](N[*:1])C1CCCCC1)[*:2]].S.R.V.W.G.[am]}$PEPTIDE1,PEPTIDE1,5:R3-9:R3$$$V2.0) | 0.7 | < 0.4 |
| CC(C)C[C@@H]1NC(=O)[C@H](C2CCCCC2)NC(=O)[C@@H](NC(=O)[C@H](CCC(N)=O)NC(=O)[C@H](C)N(C)C(=O)[C@@H](N)Cc2c[nH]c3ccccc23)CCCCNC(=O)CC[C@@H](C(=O)N[C@@H](Cc2c[nH]cn2)C(=O)N[C@H](C(=O)N[C@@H](CCC(N)=O)C(=O)N[C@@H](CCCNC(=N)N)C(=O)N[C@H](C(=O)N[C@@H](Cc2c[nH]c3ccccc23)C(=O)NCC(N)=O)C(C)C)C(C)C)NC(=O)[C@H](CC(=O)O)NC1=O [compound 420] (HELM PEPTIDE1{W.[meA].Q.K.[O=C([C@@H](N[*:1])C1CCCCC1)[*:2]].L.D.E.H.V.Q.R.V.W.G.[am]}$PEPTIDE1,PEPTIDE1,4:R3-8:R3$$$V2.0) | 0.7 | 0.4 to 1 |
| CC(=O)N[C@@H](Cc1c[nH]c2ccccc12)C(=O)N(C)[C@@H](C)C(=O)N[C@@H](CCC(N)=O)C(=O)N[C@H]1CCCCNC(=O)CC[C@@H](C(=O)N[C@@H](Cc2c[nH]cn2)C(=O)N[C@H](C(=O)N[C@@H](CCC(N)=O)C(=O)N[C@@H](CCCNC(=N)N)C(=O)N[C@H](C(=O)N[C@@H](Cc2c[nH]c3ccccc23)C(=O)NCC(N)=O)C(C)C)C(C)C)NC(=O)[C@H](CC(=O)O)NC(=O)[C@H](CC(C)C)NC(=O)[C@H](C2CCCCC2)NC1=O [compound 421] (HELM PEPTIDE1{[ac].W.[meA].Q.K.[O=C([C@@H](N[*:1])C1CCCCC1)[*:2]].L.D.E.H.V.Q.R.V.W.G.[am]}$PEPTIDE1,PEPTIDE1,5:R3-9:R3$$$V2.0) | 0.7 | < 0.4 |
| CCCCCCCCC(=O)N[C@@H](Cc1c[nH]c2ccccc12)C(=O)N(C)[C@@H](C)C(=O)N[C@@H](CCC(N)=O)C(=O)N[C@H]1CCCCNC(=O)CC[C@@H](C(=O)N[C@@H](Cc2c[nH]cn2)C(=O)N[C@H](C(=O)N[C@@H](CCC(N)=O)C(=O)N[C@@H](CCCNC(=N)N)C(=O)N[C@H](C(=O)N[C@@H](Cc2c[nH]c3ccccc23)C(=O)NCC(N)=O)C(C)C)C(C)C)NC(=O)[C@H](CC(=O)O)NC(=O)[C@H](CC(C)C)NC(=O)[C@H](C2CCCCC2)NC1=O [compound 422] (HELM PEPTIDE1{[CCCCCCCCC(=O)[*:2]].W.[meA].Q.K.[O=C([C@@H](N[*:1])C1CCCCC1)[*:2]].L.D.E.H.V.Q.R.V.W.G.[am]}$PEPTIDE1,PEPTIDE1,5:R3-9:R3$$$V2.0) |  | 0.4 to 1 |
| CC[C@H](C)[C@@H]1NC(=O)[C@@H](NC(=O)[C@H](CCC(N)=O)NC(=O)[C@H](C)N(C)C(=O)[C@H](Cc2c[nH]c3ccccc23)NC(C)=O)CCCNC(=O)CC[C@@H](C(=O)N[C@@H](Cc2c[nH]cn2)C(=O)N[C@H](C(=O)N[C@@H](CCC(N)=O)C(=O)N[C@@H](CCCNC(=N)N)C(=O)N[C@H](C(=O)N[C@@H](Cc2c[nH]c3ccccc23)C(=O)NCC(N)=O)C(C)C)C2CCCCC2)NC(=O)[C@H](CC(=O)O)NC(=O)[C@H](CC(C)C)NC1=O [compound 424] (HELM PEPTIDE1{[ac].W.[meA].Q.[Orn].I.L.D.E.H.[O=C([C@@H](N[*:1])C1CCCCC1)[*:2]].Q.R.V.W.G.[am]}$PEPTIDE1,PEPTIDE1,5:R3-9:R3$$$V2.0) | 0.7 | < 0.4 |

The remaining lines, values ahead:

| β-Cat FP Hill slope | Kd [µM] | Compound |
| --- | --- | --- |
| 0.93 | < 0.4 | CC[C@H](C)[C@@H]1NC(=O)[C@@H](NC(=O)C(C)(C)NC(=O)[C@H](C)N(C)C(=O)[C@@H](N)Cc2c[nH]c3ccccc23)CCCCNC(=O)CC[C@@H](C(=O)N[C@@H](Cc2c[nH]cn2)C(=O)N[C@H](C(=O)N[C@@H](CCC(N)=O)C(=O)N[C@@H](CCCNC(=N)N)C(=O)N[C@H](C(=O)N[C@@H](Cc2c[nH]c3ccccc23)C(=O)NCC(N)=O)C(C)C)C2CCCCC2)NC(=O)[C@H](CC(=O)O)NC(=O)[C@H](CC(C)C)NC1=O [compound 417] (HELM PEPTIDE1{W.[meA].[Aib].K.I.L.D.E.H.[O=C([C@@H](N[*:1])C1CCCCC1)[*:2]].Q.R.V.W.G.[am]}$PEPTIDE1,PEPTIDE1,4:R3-8:R3$$$V2.0) |
| 1.03 | > 30 | CC[C@H](C)[C@@H]1NC(=O)[C@@H](NC(=O)C(C)(C)NC(=O)[C@H](C)N(C)C(=O)[C@H](Cc2c[nH]c3ccccc23)NC(C)=O)CCCCNC(=O)CC[C@@H](C(=O)N[C@@H](Cc2c[nH]cn2)C(=O)N[C@H](C(=O)N[C@@H](CCC(N)=O)C(=O)N[C@@H](CCCNC(=N)N)C(=O)N[C@H](C(=O)N[C@@H](Cc2c[nH]c3ccccc23)C(=O)NCC(N)=O)C(C)C)C2CCCCC2)NC(=O)[C@H](CC(=O)O)NC(=O)[C@H](CC(C)C)NC1=O [compound 418] (HELM PEPTIDE1{[ac].W.[meA].[Aib].K.I.L.D.E.H.[O=C([C@@H](N[*:1])C1CCCCC1)[*:2]].Q.R.V.W.G.[am]}$PEPTIDE1,PEPTIDE1,5:R3-9:R3$$$V2.0) |
| 0.7 | < 0.4 | CC[C@H](C)[C@@H]1NC(=O)[C@@H](NC(=O)[C@H](CCC(N)=O)NC(=O)[C@H](C)N(C)C(=O)[C@H](Cc2c[nH]c3ccccc23)NC(=O)CCNC(C)=O)CCCCNC(=O)CC[C@@H](C(=O)N[C@@H](Cc2c[nH]cn2)C(=O)N[C@H](C(=O)N[C@@H](CCC(N)=O)C(=O)N[C@@H](CCCNC(=N)N)C(=O)N[C@H](C(=O)N[C@@H](Cc2c[nH]c3ccccc23)C(=O)NCC(N)=O)C(C)C)C2CCCCC2)NC(=O)[C@H](CC(=O)O)NC(=O)[C@H](CC(C)C)NC1=O [compound 419] (HELM PEPTIDE1{[ac].[bAla].W.[meA].Q.K.I.L.D.E.H.[O=C([C@@H](N[*:1])C1CCCCC1)[*:2]].Q.R.V.W.G.[am]}$PEPTIDE1,PEPTIDE1,6:R3-10:R3$$$V2.0) |
| 0.7 | 0.4 to 1 | CC[C@H](C)[C@@H]1NC(=O)[C@@H](NC(=O)[C@H](CCC(N)=O)NC(=O)[C@H](C)N(C)C(=O)[C@@H](N)Cc2c[nH]c3ccccc23)CCCNC(=O)CC[C@@H](C(=O)N[C@@H](Cc2c[nH]cn2)C(=O)N[C@H](C(=O)N[C@@H](CCC(N)=O)C(=O)N[C@@H](CCCNC(=N)N)C(=O)N[C@H](C(=O)N[C@@H](Cc2c[nH]c3ccccc23)C(=O)NCC(N)=O)C(C)C)C2CCCCC2)NC(=O)[C@H](CC(=O)O)NC(=O)[C@H](CC(C)C)NC1=O [compound 423] (HELM PEPTIDE1{W.[meA].Q.[Orn].I.L.D.E.H.[O=C([C@@H](N[*:1])C1CCCCC1)[*:2]].Q.R.V.W.G.[am]}$PEPTIDE1,PEPTIDE1,4:R3-8:R3$$$V2.0) |
|  | < 0.4 | CCCCCCCCC(=O)N[C@@H](Cc1c[nH]c2ccccc12)C(=O)N(C)[C@@H](C)C(=O)N[C@@H](CCC(N)=O)C(=O)N[C@H]1CCCNC(=O)CC[C@@H](C(=O)N[C@@H](Cc2c[nH]cn2)C(=O)N[C@H](C(=O)N[C@@H](CCC(N)=O)C(=O)N[C@@H](CCCNC(=N)N)C(=O)N[C@H](C(=O)N[C@@H](Cc2c[nH]c3ccccc23)C(=O)NCC(N)=O)C(C)C)C2CCCCC2)NC(=O)[C@H](CC(=O)O)NC(=O)[C@H](CC(C)C)NC(=O)[C@H]([C@@H](C)CC)NC1=O [compound 425] (HELM PEPTIDE1{[CCCCCCCCC(=O)[*:2]].W.[meA].Q.[Orn].I.L.D.E.H.[O=C([C@@H](N[*:1])C1CCCCC1)[*:2]].Q.R.V.W.G.[am]}$PEPTIDE1,PEPTIDE1,5:R3-9:R3$$$V2.0) |

— US12441768B2, “Compositions and methods for treating endometriosis” (EndoMet Biosciences, Inc., priority 2018, dated 2025)
